{
  "source": "patent EP0674651B1",
  "about": "“SUBSTITUTED 6-AZAANDROSTENONES” (priority 1992, dated 1994)",
  "key": {"[1]": {"molecular_target": "Rat Prostatic 5α-reductase", "test": "5α-reductase in vitro inhibitory activity, rat prostatic", "settings": "read-out: IC50 Rat Prostatic; microsomes derived from prostate tissue from the rat", "experimental": "Microsomes were prepared by homogenization of the tissue or cells, followed by differential centrifugation of the homogenate. […] Corresponding incubations were carried out with no test compound as a control study.\nThe percentage of conversion of testosterone to DHT in the presence of test compounds compared to the corresponding conversion in the control study was estimated using high pressure liquid chromatography (HPLC) with radiochemical detection."}, "[2]": {"molecular_target": "T1, human type 1 5α-reductase (Homo sapiens, UniProt P18405)", "T1 sequence (P18405 1-259)": "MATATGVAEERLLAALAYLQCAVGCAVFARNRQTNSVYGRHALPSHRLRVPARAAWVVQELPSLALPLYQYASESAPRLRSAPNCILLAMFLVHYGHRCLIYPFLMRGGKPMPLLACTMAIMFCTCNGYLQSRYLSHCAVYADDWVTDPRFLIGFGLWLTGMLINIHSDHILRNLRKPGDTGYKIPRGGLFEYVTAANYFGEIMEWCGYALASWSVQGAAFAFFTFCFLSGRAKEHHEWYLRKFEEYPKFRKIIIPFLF", "test": "5α-reductase in vitro inhibitory activity, human type 1"}, "[3]": {"molecular_target": "T2, human type 2 5α-reductase (Homo sapiens, UniProt P31213)", "T2 sequence (P31213 1-254)": "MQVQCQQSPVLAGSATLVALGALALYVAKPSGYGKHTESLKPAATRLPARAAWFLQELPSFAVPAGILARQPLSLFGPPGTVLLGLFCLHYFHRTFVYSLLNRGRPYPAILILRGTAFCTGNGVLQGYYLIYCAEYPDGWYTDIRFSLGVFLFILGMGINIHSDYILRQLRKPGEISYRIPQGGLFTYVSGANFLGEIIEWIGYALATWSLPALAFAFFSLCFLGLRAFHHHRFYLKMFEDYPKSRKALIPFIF", "test": "5α-reductase in vitro inhibitory activity, human type 2"}},
  "note": "pIC50: −log10 of the molar value.",
  "data": [
    {"smiles": "CC(NC(=O)[C@H]1CC[C@H]2[C@@H]3CNC4=CC(=O)CC[C@]4(C)[C@H]3CC[C@]12C)c1ccccc1", "note": "(stereo partly drawn) [Compound 35, 17β-N-(1-Phenyl)ethyl-carbamoyl-6-azaandrost-4-en-3-one]", "values": [
      {"measurement": "pIC50", "setting": "[1]", "value": "> 8.00"},
      {"measurement": "pIC50", "setting": "[2]", "value": "< 7.00"},
      {"measurement": "pIC50", "setting": "[3]", "value": "> 8.00"}
    ]},
    {"smiles": "CCCCCCCCCCc1ccc(NC(=O)[C@H]2CC[C@H]3[C@@H]4CNC5=CC(=O)CC[C@]5(C)[C@H]4CC[C@]23C)cc1", "note": "[Compound 36, 17β-N-(4-Decyl)phenyl-carbamoyl-6-azaandrost-4-en-3-one]", "values": [
      {"measurement": "pIC50", "setting": "[1]", "value": "> 8.00"},
      {"measurement": "pIC50", "setting": "[2]", "value": "< 7.00"},
      {"measurement": "pIC50", "setting": "[3]", "value": "> 8.00"}
    ]},
    {"smiles": "C[C@]12CC[C@H]3[C@@H](CNC4=CC(=O)CC[C@@]43C)[C@@H]1CC[C@@H]2COC(=O)C12CC3CC(CC(C3)C1)C2", "note": "[Compound 38, 17β-Hydroxymethyl-(1-adamantylcarboxylate)-6-azaandrost-4-en-3-one]", "values": [
      {"measurement": "pIC50", "setting": "[1]", "value": "< 7.00"},
      {"measurement": "pIC50", "setting": "[2]", "value": "7.00 to 8.00"},
      {"measurement": "pIC50", "setting": "[3]", "value": "> 8.00"}
    ]},
    {"smiles": "CC1(C)C2CCC(CNC(=O)[C@H]3CC[C@H]4[C@@H]5CNC6=CC(=O)CC[C@]6(C)[C@H]5CC[C@]34C)C1C2", "note": "(stereo partly drawn) [Compound 39, 17β-N-Myrantyl-carbamoyl-6-azaandrost-4-en-3-one]", "values": [
      {"measurement": "pIC50", "setting": "[1]", "value": "7.00 to 8.00"},
      {"measurement": "pIC50", "setting": "[2]", "value": "7.00 to 8.00"},
      {"measurement": "pIC50", "setting": "[3]", "value": "> 8.00"}
    ]},
    {"smiles": "Cc1cc(C)c(NC(=O)[C@H]2CC[C@H]3[C@@H]4CNC5=CC(=O)CC[C@]5(C)[C@H]4CC[C@]23C)c(C)c1", "note": "[Compound 40, 17β-N-(2,4,6-Trimethyl)phenyl-carbamoyl-6-azaandrost-4-en-3-one]", "values": [
      {"measurement": "pIC50", "setting": "[1]", "value": "7.00 to 8.00"},
      {"measurement": "pIC50", "setting": "[2]", "value": "7.00 to 8.00"},
      {"measurement": "pIC50", "setting": "[3]", "value": "> 8.00"}
    ]},
    {"smiles": "C[C@]12CC[C@H]3[C@@H](CNC4=CC(=O)CC[C@@]43C)[C@@H]1CC[C@@H]2C(=O)NCc1ccc(F)cc1F", "note": "[Compound 42, 17β-N-(2,4-Difluoro)benzyl-carbamoyl-6-azaandrost-4-en-3-one]", "values": [
      {"measurement": "pIC50", "setting": "[1]", "value": "> 8.00"},
      {"measurement": "pIC50", "setting": "[2]", "value": "7.00 to 8.00"},
      {"measurement": "pIC50", "setting": "[3]", "value": "> 8.00"}
    ]},
    {"smiles": "C[C@]12CC[C@H]3[C@@H](CNC4=CC(=O)CC[C@@]43C)[C@@H]1CC[C@@H]2C(=O)CC(c1ccccc1)c1ccccc1", "note": "[Compound 43, 17β-(1-Oxo-3.3-diphenylpropyl)-6-azaandrost-4-en-3-one]", "values": [
      {"measurement": "pIC50", "setting": "[1]", "value": "< 7.00"},
      {"measurement": "pIC50", "setting": "[2]", "value": "> 8.00"},
      {"measurement": "pIC50", "setting": "[3]", "value": "> 8.00"}
    ]},
    {"smiles": "C[C@]12CC[C@H]3[C@@H](CNC4=CC(=O)CC[C@@]43C)[C@@H]1CC[C@@H]2C(=O)Nc1cc(C(F)(F)F)ccc1Cl", "note": "[Compound 44, 17β-N-(2-Chloro-5-trifluoromethyl)-phenyl-carbamoyl-6-azaandrost-4-en-3-one]", "values": [
      {"measurement": "pIC50", "setting": "[1]", "value": "< 7.00"},
      {"measurement": "pIC50", "setting": "[2]", "value": "7.00 to 8.00"},
      {"measurement": "pIC50", "setting": "[3]", "value": "> 8.00"}
    ]},
    {"smiles": "CC(NC(=O)[C@H]1CC[C@H]2[C@@H]3CNC4=CC(=O)CC[C@]4(C)[C@H]3CC[C@]12C)C(c1ccccc1)c1ccccc1", "note": "(stereo partly drawn) [Compound 45, 17β-N-(2,2-Diphenyl-1-methyl)ethyl-carbamoyl-6-azaandrost-4-en-3-one]", "values": [
      {"measurement": "pIC50", "setting": "[1]", "value": "7.00 to 8.00"},
      {"measurement": "pIC50", "setting": "[2]", "value": "< 7.00"},
      {"measurement": "pIC50", "setting": "[3]", "value": "> 8.00"}
    ]},
    {"smiles": "Cc1cc(Br)cc(C)c1NC(=O)[C@H]1CC[C@H]2[C@@H]3CNC4=CC(=O)CC[C@]4(C)[C@H]3CC[C@]12C", "note": "[Compound 46, 17β-N-(2,6-Dimethyl-4-bromo)phenyl-carbamoyl-6-azaandrost-4-en-3-one]", "values": [
      {"measurement": "pIC50", "setting": "[1]", "value": "> 8.00"},
      {"measurement": "pIC50", "setting": "[2]", "value": "7.00 to 8.00"},
      {"measurement": "pIC50", "setting": "[3]", "value": "> 8.00"}
    ]},
    {"smiles": "C[C@]12CC[C@H]3[C@@H](CNC4=CC(=O)CC[C@@]43C)[C@@H]1CC[C@@H]2C(=O)NC(c1ccc(Cl)cc1)c1ccc(Cl)cc1", "note": "[Compound 47]", "values": [
      {"measurement": "pIC50", "setting": "[1]", "value": "> 8.00"},
      {"measurement": "pIC50", "setting": "[2]", "value": "7.00 to 8.00"},
      {"measurement": "pIC50", "setting": "[3]", "value": "> 8.00"}
    ]},
    {"smiles": "Cc1cc(C(C)(C)C)cc(C)c1NC(=O)[C@H]1CC[C@H]2[C@@H]3CNC4=CC(=O)CC[C@]4(C)[C@H]3CC[C@]12C", "note": "[Compound 48, 17β-N-(2,6-Dimethyl-4-t-butyl)phenyl-carbamoyl-6-azaandrost-4-en-3-one]", "values": [
      {"measurement": "pIC50", "setting": "[1]", "value": "7.00 to 8.00"},
      {"measurement": "pIC50", "setting": "[2]", "value": "> 8.00"},
      {"measurement": "pIC50", "setting": "[3]", "value": "> 8.00"}
    ]},
    {"smiles": "CC(C)c1cc(Br)c(NC(=O)[C@H]2CC[C@H]3[C@@H]4CNC5=CC(=O)CC[C@]5(C)[C@H]4CC[C@]23C)c(Br)c1", "note": "[Compound 49, 17β-N-(2,6-Dibromo-4-isopropyl)phenyl-carbamoyl-6-azaandrost-4-en-3-one]", "values": [
      {"measurement": "pIC50", "setting": "[1]", "value": "> 8.00"},
      {"measurement": "pIC50", "setting": "[2]", "value": "> 8.00"},
      {"measurement": "pIC50", "setting": "[3]", "value": "> 8.00"}
    ]}
  ]
}
